The structures appear in SMILES notation.

The first assay has as its target T1, human leukocyte elastase (HLE) (Homo sapiens, UniProt P08246).
T1 sequence (P08246 30-267): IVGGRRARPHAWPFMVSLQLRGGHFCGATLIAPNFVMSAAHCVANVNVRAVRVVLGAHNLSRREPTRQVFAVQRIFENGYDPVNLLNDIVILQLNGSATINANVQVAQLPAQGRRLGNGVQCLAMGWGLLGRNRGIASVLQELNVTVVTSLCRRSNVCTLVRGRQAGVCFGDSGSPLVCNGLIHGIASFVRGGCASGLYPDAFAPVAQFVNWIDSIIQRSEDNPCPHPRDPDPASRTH
Put plainly: Inhibition of human leukocyte elastase: rate of inactivation kon and inhibition constant Ki* (koff/kon). It is filed as biochemical.
Details: not given
Turning to `CCOP(=O)(OCC)c1cccc(C(=O)OCN2C(=O)c3c(C(C)C)cc(OC)cc3S2(=O)=O)c1` [Example 1BE], the Ki was found to be 0.064 nM.

Still in this assay, the particulars now being: Ki* = koff/kon, calculated from measured koff and kon; not a truly reversible Ki; read-out: K*i.
Turning to `CCc1c(OC)cc(OC)c2c1C(=O)N(COC(=O)c1c(Cl)cccc1Cl)S2(=O)=O` [Example 1AY], the Ki was 0.9 nM.
As for `CCOc1cc(C(C)C)c2c(c1)S(=O)(=O)N(COC(=O)c1c(Cl)cccc1Cl)C2=O` [Example 5A, 6-ethoxy-4-isopropyl-2-saccharinylmethyl 2,6-dichlorobenzoate], the Ki is 0.05 nM.
For `COc1cc(C(C)C)c2c(c1)S(=O)(=O)N(COC(=O)c1c(C)cc(OCc3ccccc3)cc1C)C2=O` [Example 1BZ], the Ki was 0.3 nM.
`COc1cc(C(C)C)c2c(c1)S(=O)(=O)N(COC(=O)c1c(Cl)ccc(S(=O)(=O)NCC(=O)O)c1Cl)C2=O` [Example 2D, 4-isopropyl-6-methoxy-2-saccharinylmethyl 2,6-dichloro-3-carboxymethylamino-sulfonylbenzoate]: the Ki was 0.008 nM.
Same read-out and setting: the result for `COc1cc(C(C)C)c2c(c1)S(=O)(=O)N(COC(=O)c1c(Cl)ccc(OCCN3CCCCC3)c1Cl)C2=O` [Example 1AU] reads 0.03 nM; that for `CC(C)Oc1cc(C(C)C)c2c(c1)S(=O)(=O)N(COC(=O)c1c(Cl)cccc1Cl)C2=O` [Example 5B], 0.057 nM; that for `COc1cc(C(C)C)c2c(c1)S(=O)(=O)N(COC(=O)c1c(OC)ccc([N+](=O)[O-])c1OC)C2=O` [Example 1BN], 0.025 nM.
On to `COCCOCCOc1cc(C(C)C)c2c(c1)S(=O)(=O)N(COC(=O)c1c(Cl)cccc1Cl)C2=O` [Example 5D], for which the Ki is 0.03 nM.
Take `CC(C)c1cc(OC2CCC2)cc2c1C(=O)N(COC(=O)c1c(Cl)cccc1Cl)S2(=O)=O` [Example 5G]: the Ki was 0.054 nM.
Turning to `CC(C)c1cccc2c1C(=O)N(COC(=O)c1c(Cl)ccc(OCc3ccccc3)c1Cl)S2(=O)=O` [Example 1Y], the Ki was 0.12 nM.
With `COc1ccc(C(=O)OCN2C(=O)c3ccccc3S2(=O)=O)c(OC)c1` [Example 1E], the Ki is 18 nM.
Take `CC(C)c1cc2c(c3c1C(=O)N(COC(=O)c1c(Cl)cccc1Cl)S3(=O)=O)OCO2` [Example 1BG]: the Ki is 0.043 nM.
With `CC(C)c1cccc2c1C(=O)N(COC(=O)c1c(Cl)ccc(O)c1Cl)S2(=O)=O` [Example 2A, 4-isopropyl-2-saccharinylmethyl 2,6-dichloro-3-hydroxybenzoate], the Ki was 0.04 nM.
With `CC(C)C1CCCC2=C1C(=O)N(COC(=O)c1c(Cl)ccc(S(=O)(=O)N(C)CCN(C)C)c1Cl)S2(=O)=O` (stereo not drawn) [Example 9E, 4-isopropyl-4,5,6,7-tetrahydro-2-saccharinylmethyl 2,6-dichloro-3-[[2-(N,N-dimethylamino)ethyl]-N-methylaminosulfonyl]benzoate hydrochoride], the Ki was 2 nM.
Regarding `COc1cc(C(C)C)c2c(c1)S(=O)(=O)N(COC(=O)c1c(OC)cccc1OC)C2=O` [Example 1BK], the Ki is 0.088 nM.
Same read-out and setting: for `O=C(OCN1C(=O)c2ccccc2S1(=O)=O)c1c(Cl)ccc(S(=O)(=O)N2CCOCC2)c1Cl` [Example 1S] the value was 2 nM; for `Cc1cccc(C)c1C(=O)OCN1C(=O)c2c(C(C)C)cccc2S1(=O)=O` [Example 1K], 0.09 nM; for `CC(C)c1cccc2c1C(=O)N(COC(=O)c1c(Cl)cc(OCCN3CCOCC3)cc1Cl)S2(=O)=O` [Example 1BY], 0.025 nM.
The same measure, in the same setting: the result for `CC(C)c1cc2c(c3c1C(=O)N(COC(=O)c1c(Cl)ccc(OCCN4CCOCC4)c1Cl)S3(=O)=O)OCO2` [Example 1BJ] reads 0.029 nM; that for `O=C(OCN1C(=O)c2ccccc2S1(=O)=O)c1cccc2ccccc12` [Example 1F], 3 nM.
Regarding `COc1cc(C(C)C)c2c(c1OC)S(=O)(=O)N(COC(=O)c1c(Cl)ccc(S(=O)(=O)N3CCN(C)CC3)c1Cl)C2=O` [Example 1BH], the Ki was 0.6 nM.
As for `CC(C)c1cc(-c2cccn2C)cc2c1C(=O)N(COC(=O)c1c(Cl)cccc1Cl)S2(=O)=O` [Example 5J, 4-isopropyl-6-[2-[1-methyl]pyrrolidinyl]saccharinylmethyl 2,6-dichlorobenzoate], the Ki was 0.2 nM.
`COc1cc(Cl)c(C(=O)OCN2C(=O)c3c(C(C)C)cccc3S2(=O)=O)c(Cl)c1` [Example 1AC]: the Ki was 0.025 nM.
For `CC(C)c1cccc2c1C(=O)N(COC(=O)c1c(Cl)ccc(S(=O)(=O)N(C)CCN(C)C)c1Cl)S2(=O)=O` [Example 1AA], the Ki was 0.01 nM.
`COc1cc(C(C)C)c2c(c1)S(=O)(=O)N(COC(=O)c1c(OC)ccc(NC(C)=O)c1OC)C2=O` [Example 1BR]: the Ki is 0.057 nM.
`COc1ccc(Cl)c(C(=O)OCN2C(=O)c3c(C(C)C)cccc3S2(=O)=O)c1Cl` [Example 1AB]: the Ki was 0.016 nM.
As for `COc1cc(F)c(C(=O)OCN2C(=O)c3c(C(C)C)cc(OC)cc3S2(=O)=O)c(F)c1` [Example 1BQ], the Ki is 0.068 nM.
Take `CC(C)c1cc2c(c3c1C(=O)N(COC(=O)c1c(Cl)ccc(S(=O)(=O)N4CCN(C)CC4)c1Cl)S3(=O)=O)OCO2` [Example 1BI]: the Ki is 0.029 nM.
For `O=C(OCN1C(=O)c2ccccc2S1(=O)=O)c1c2ccccc2cc2ccccc12` [Example 1AM], the Ki is 2.1 nM.
On the same count and under the same terms, for `COc1cc(C(C)C)c2c(c1)S(=O)(=O)N(COC(=O)c1c(Cl)ccc(OCCN(C)C)c1Cl)C2=O` [Example 1AS] the value was 0.013 nM; for `COCC(COc1cc(C(C)C)c2c(c1)S(=O)(=O)N(COC(=O)c1c(Cl)cccc1Cl)C2=O)OC` (racemic) [Example 5F], 0.027 nM.
`CC(C)c1cccc2c1C(=O)N(COC(=O)c1c(Cl)ccc(S(=O)(=O)N3CCN(Cc4ccccc4)CC3)c1Cl)S2(=O)=O` [Example 1Z, 4-isopropyl-2-saccharinylmethyl 2,6-dichloro-3-(4-benzyl-1-piperazinyl-sulfonyl)benzoate]: the Ki was 0.06 nM.
As to `CC(C)c1cccc2c1C(=O)N(COC(=O)c1c(Cl)ccc(S(=O)(=O)N3CCN(C)CC3)c1Cl)S2(=O)=O` [Example 1V], the Ki is 0.007 nM.
Turning to `CC(C)c1cccc2c1C(=O)N(COC(=O)c1cc(Cl)ccc1Cl)S2(=O)=O` [Example 1M], the Ki was 0.25 nM.
As to `CCCc1c(OC)c(OC)cc2c1C(=O)N(COC(=O)c1c(Cl)ccc(OCCN3CCOCC3)c1Cl)S2(=O)=O` [Example 1BD], the Ki was 0.07 nM.
In the case of `COC(=O)COc1cc(C(C)C)c2c(c1)S(=O)(=O)N(COC(=O)c1c(Cl)cccc1Cl)C2=O` [Example 5E], the Ki was 0.017 nM.
On to `CC(C)c1cccc2c1C(=O)N(COC(=O)c1c(F)ccc(S(=O)(=O)N3CCN(C)CC3)c1F)S2(=O)=O` [Example 1AG], for which the Ki was 0.01 nM.
The same measure, in the same setting: the result for `COc1cc(OC)c(C(=O)OCN2C(=O)c3c(C(C)C)cc(OC)cc3S2(=O)=O)c(OC)c1` [Example 1BO] reads 0.05 nM.
On to `CC(C)c1cc(OCC2COC(C)(C)O2)cc2c1C(=O)N(COC(=O)c1c(Cl)cccc1Cl)S2(=O)=O` (stereo not drawn) [Example 5C], for which the Ki was 0.03 nM.
Regarding `COc1cc2c(c(C(C)C)c1OC)C(=O)N(COC(=O)c1c(Cl)cccc1Cl)S2(=O)=O` [Example 1BB], the Ki is 0.35 nM.
In the case of `CC(C)c1cc(OCC(=O)OC(C)(C)C)cc2c1C(=O)N(COC(=O)c1c(Cl)cccc1Cl)S2(=O)=O` [Example 7A, 6-(2-t-butoxy-2-oxoethoxy)-4-isopropyl-2-saccharinylmethyl 2,6-dichlorobenzoate], the Ki was 0.08 nM.
